Calls of active or inactive are those of the source. The calls are words filed in the database; no cut-off is given here.
Tests used:
PC-3 [1] = test: Growth inhibition of human PC-3 cells incubated for 6 to 7 days by MTS assay; assay type: functional; conditions: time 6-7 day
LNCaP [2] = test: Growth inhibition of human LNCaP cells incubated for 6 to 7 days by MTS assay; assay type: functional; conditions: time 6-7 day
CWR22R [3] = test: Growth inhibition of human 22Rv1 cells incubated for 6 to 7 days by MTS assay; assay type: functional; conditions: time 6-7 day
[4] = molecular target: T1, Lysine-specific histone demethylase 1A (Homo sapiens, UniProt O60341); test: Inhibition of recombinant human LSD1 using Histone H3 as fluorometric substrate incubated for 30 mins by HRP based plate reader assay
CWR22R [5] = test: Induction of apoptosis in human 22Rv1 cells at 10 uM incubated for 5 days by Annexin V-FITC/PI staining based flow cytometric analysis (reference value: 8.97 %); assay type: functional; conditions: time 5 day
[6] = molecular target: T2, Amine oxidase [flavin-containing] A (Homo sapiens, UniProt P21397); test: Inhibition of MAO-A (unknown origin)
T2 sequence (P21397 whole entry): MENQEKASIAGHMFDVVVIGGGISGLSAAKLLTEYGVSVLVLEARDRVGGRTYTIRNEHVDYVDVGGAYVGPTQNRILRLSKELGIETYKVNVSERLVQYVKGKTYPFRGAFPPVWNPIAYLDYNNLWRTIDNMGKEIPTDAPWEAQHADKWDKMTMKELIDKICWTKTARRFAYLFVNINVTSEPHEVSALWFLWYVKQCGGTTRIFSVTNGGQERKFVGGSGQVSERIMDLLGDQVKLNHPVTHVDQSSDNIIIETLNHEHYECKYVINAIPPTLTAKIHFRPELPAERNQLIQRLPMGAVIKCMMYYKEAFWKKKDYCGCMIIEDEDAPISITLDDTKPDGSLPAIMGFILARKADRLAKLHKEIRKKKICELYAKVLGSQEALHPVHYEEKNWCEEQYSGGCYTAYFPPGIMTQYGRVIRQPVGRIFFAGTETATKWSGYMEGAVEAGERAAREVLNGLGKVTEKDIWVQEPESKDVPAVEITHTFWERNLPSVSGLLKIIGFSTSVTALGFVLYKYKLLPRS

[7] = Inhibition of LSD2 (unknown origin); parameters: species or system Homo sapiens
[8] = molecular target: T1, Lysine-specific histone demethylase 1A; test: Inhibition of LSD1 in human LNCaP cells assessed as upregulation of H3K9me2 expression at 10 uM incubated for 24 hrs by Western blotting analysis; assay type: cell-based
[9] = molecular target: T1, Lysine-specific histone demethylase 1A; test: Inhibition of LSD1 in human 22Rv1 cells assessed as upregulation of H3K9me2 expression at 10 uM incubated for 24 hrs by Western blotting analysis; assay type: cell-based
LNCaP [10] = test: Synergistic growth inhibition of human LNCaP cells incubated for 6 to 7 days in presence of TCP by MTS assay; assay type: functional; conditions: time 6-7 day
CWR22R [11] = test: Synergistic growth inhibition of human 22Rv1 cells incubated for 6 to 7 days in presence of TCP by MTS assay; assay type: functional; conditions: time 6-7 day
PC-3 [12] = test: Synergistic growth inhibition of human PC-3 cells incubated for 6 to 7 days in presence of TCP by MTS assay; assay type: functional; conditions: time 6-7 day
[13] = Toxicity in BALB/c mouse xenografted with human 22Rv1 cells assessed as change in body weight at 65 mg/kg,ip administrated daily for 31 days; assay type: organism-based, CWR22R; conditions: in vivo, 744 h, time 31 day
CWR22R [14] = test: Synergistic antitumor activity against human 22Rv1 cells xenografted in BALB/c mouse assessed as tumor growth inhibition at 65 mg/kg,ip administrated daily for 31 days in presence of TCP relative to control; conditions: 22Rv1, 744 h, read-out: TGI
LNCaP [15] = test: Synergistic growth inhibition of human LNCaP cells incubated for 6 to 7 days in presence of ORY1001 by MTS assay; assay type: functional; conditions: time 6-7 day
CWR22R [16] = test: Synergistic growth inhibition of human 22Rv1 cells incubated for 6 to 7 days in presence of ORY1001 by MTS assay; assay type: functional; conditions: time 6-7 day
PC-3 [17] = test: Synergistic growth inhibition of human PC-3 cells incubated for 6 to 7 days in presence of ORY1001 by MTS assay; assay type: functional; conditions: time 6-7 day
[18] = Toxicity in BALB/c mouse xenografted with human 22Rv1 cells assessed as change in body weight at 65 mg/kg,ip administrated daily for 31 days in presence of TCP; assay type: organism-based, CWR22R; conditions: in vivo, 744 h, time 31 day
[19] = molecular target: Histone-lysine N-methyltransferase EZH2 (Homo sapiens) (UniProt Q15910); test: Inhibition of EZH2 in human LNCaP cells assessed as downregulation of H3K27me3 expression at 10 uM incubated for 24 hrs by Western blotting analysis; assay type: cell-based
[20] = molecular target: Histone-lysine N-methyltransferase EZH2 (Homo sapiens) (UniProt Q15910); test: Inhibition of EZH2 in human 22Rv1 cells assessed as downregulation of H3K27me3 expression at 10 uM incubated for 24 hrs by Western blotting analysis; assay type: cell-based

Chain of Histone-lysine N-methyltransferase EZH2 (Homo sapiens) (Q15910 whole entry, looked up): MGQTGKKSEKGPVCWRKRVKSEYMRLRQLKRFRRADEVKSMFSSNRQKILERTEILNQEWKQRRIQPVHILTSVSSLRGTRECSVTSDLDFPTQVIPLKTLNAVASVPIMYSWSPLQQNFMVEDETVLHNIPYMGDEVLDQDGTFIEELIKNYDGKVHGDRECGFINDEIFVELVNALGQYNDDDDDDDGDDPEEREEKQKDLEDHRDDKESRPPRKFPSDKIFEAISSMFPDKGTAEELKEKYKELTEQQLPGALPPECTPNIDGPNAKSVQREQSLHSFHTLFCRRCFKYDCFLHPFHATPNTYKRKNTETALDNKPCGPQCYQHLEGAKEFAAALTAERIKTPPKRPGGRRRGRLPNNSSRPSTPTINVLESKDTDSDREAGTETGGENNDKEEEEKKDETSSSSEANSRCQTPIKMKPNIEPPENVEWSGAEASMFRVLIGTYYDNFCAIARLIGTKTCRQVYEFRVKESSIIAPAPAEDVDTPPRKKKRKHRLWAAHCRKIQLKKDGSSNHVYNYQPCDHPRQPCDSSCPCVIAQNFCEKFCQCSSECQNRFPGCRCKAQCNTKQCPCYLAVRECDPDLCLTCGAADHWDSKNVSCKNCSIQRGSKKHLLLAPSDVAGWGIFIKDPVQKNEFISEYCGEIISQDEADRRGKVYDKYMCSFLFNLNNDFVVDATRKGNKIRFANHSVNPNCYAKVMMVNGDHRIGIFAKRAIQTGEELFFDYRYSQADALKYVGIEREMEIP

| GI50 (PC-3 [1]) [µM] | GI50 (LNCaP [2]) [µM] | IC50 [4] [µM] | Structure (SMILES) | GI50 (CWR22R [3]) [µM] | further results |
| --- | --- | --- | --- | --- | --- |
| 12.7 | 3.42 | – | CCN(c1cc(-c2ccc([C@@H]3C[C@H]3NC3CCOCC3)cc2)cc(C(=O)NCc2c(C)cc(C)[nH]c2=O)c1C)C1CCOCC1 (racemic) | 4.39 | – |
| 2.45 | 3.62 | > 3 | CCN(c1cc(-c2ccc([C@@H]3C[C@H]3NC(=O)OC(C)(C)C)cc2)cc(C(=O)NCc2c(C)cc(C)[nH]c2=O)c1C)C1CCOCC1 (racemic) | 5.12 | – |
| > 30 | 16.9 | > 3 | CCN(c1cc(-c2ccc([C@@H]3C[C@H]3N(Cc3ccccc3OC)C(=O)OC(C)(C)C)cc2)cc(C(=O)NCc2c(C)cc(C)[nH]c2=O)c1C)C1CCOCC1 (racemic) | 16.7 | – |
| 19.3 | 7.22 | > 3 | CCN(c1cc(-c2cccc([C@H]3C[C@@H]3NC(=O)OC(C)(C)C)c2)cc(C(=O)NCc2c(C)cc(C)[nH]c2=O)c1C)C1CCOCC1 (racemic) | 21.7 | – |
| 13.5 | 12.4 | > 3 | CCN(c1cc(-c2cccc([C@@H]3C[C@H]3N)c2)cc(C(=O)NCc2c(C)cc(C)[nH]c2=O)c1C)C1CCOCC1 (racemic) | 26.2 | – |
| 3.68 | 3.38 | > 3 | CCN(c1cc(-c2cccc([C@H]3C[C@@H]3N(CC3CCOCC3)C(=O)OC(C)(C)C)c2)cc(C(=O)NCc2c(C)cc(C)[nH]c2=O)c1C)C1CCOCC1 (racemic) | 6.05 | – |
| 18.1 | 5.02 | > 3 | CCN(c1cc(-c2ccc([C@@H]3C[C@H]3N(C(=O)OC(C)(C)C)C3CCCCC3)cc2)cc(C(=O)NCc2c(C)cc(C)[nH]c2=O)c1C)C1CCOCC1 (racemic) | 24.3 | – |
| 7.96 | 4.42 | – | CCN(c1cc(-c2ccc([C@@H]3C[C@H]3NC(=O)C(C)(C)C)cc2)cc(C(=O)NCc2c(C)cc(C)[nH]c2=O)c1C)C1CCOCC1 (racemic) | 13.3 | inhibition [8]: inactive; inhibition [9]: inactive |
| 23.9 | 6.83 | – | CCN(c1cc(-c2ccc([C@@H]3C[C@H]3N)cc2)cc(C(=O)NCc2c(C)cc(C)[nH]c2=O)c1C)C1CCOCC1 (racemic) | 16.3 | – |
| 12 | 5.34 | – | CCN(c1cc(-c2ccc([C@@H]3C[C@H]3NC3CCCCC3)cc2)cc(C(=O)NCc2c(C)cc(C)[nH]c2=O)c1C)C1CCOCC1 (racemic) | 4.61 | – |
| 12.6 | 5.11 | > 3 | CCN(c1cc(-c2ccc([C@@H]3C[C@H]3N(CC(=O)N3CCOCC3)C(=O)OC(C)(C)C)cc2)cc(C(=O)NCc2c(C)cc(C)[nH]c2=O)c1C)C1CCOCC1 (racemic) | 7.83 | – |
| 10.2 | 5.7 | – | CCN(c1cc(-c2cccc([C@@H]3C[C@H]3NCC3CCOCC3)c2)cc(C(=O)NCc2c(C)cc(C)[nH]c2=O)c1C)C1CCOCC1 (racemic) | 4.81 | – |
| > 30 | 19.5 | – | CCN(c1cc(-c2ccc(CN3CCOCC3)cc2)cc(C(=O)NCc2c(C)cc(C)[nH]c2=O)c1C)C1CCOCC1 [TAZEMETOSTAT] | 51.9 | GI50 (LNCaP [10]): 13 µM; GI50 (CWR22R [11]): > 30 µM; GI50 (PC-3 [12]): > 30 µM; Activity [13]: Non-Toxic; Activity (CWR22R [5]): 17.88%; inhibition in vivo at 65 mg/kg (CWR22R [14]): 28.8%; GI50 (LNCaP [15]): 12 µM; GI50 (CWR22R [16]): > 30 µM; GI50 (PC-3 [17]): > 30 µM; Activity [18]: Non-Toxic |
| 9.24 | 3.41 | – | CCN(c1cc(-c2ccc([C@@H]3C[C@H]3NCc3ccccc3)cc2)cc(C(=O)NCc2c(C)cc(C)[nH]c2=O)c1C)C1CCOCC1 (racemic) | 3.9 | – |
| > 30 | 9.73 | > 3 | CCN(c1cc(-c2ccc([C@@H]3C[C@H]3N(CC3CC3)C(=O)OC(C)(C)C)cc2)cc(C(=O)NCc2c(C)cc(C)[nH]c2=O)c1C)C1CCOCC1 (racemic) | 18.8 | – |
| 3.27 | 3.4 | > 3 | CCN(c1cc(-c2ccc([C@@H]3C[C@H]3N(C(=O)OC(C)(C)C)C3CCOCC3)cc2)cc(C(=O)NCc2c(C)cc(C)[nH]c2=O)c1C)C1CCOCC1 (racemic) | 8.86 | – |
| 5.13 | 5.19 | > 3 | CCN(c1cc(-c2ccc([C@@H]3C[C@H]3N(Cc3ccccc3F)C(=O)OC(C)(C)C)cc2)cc(C(=O)NCc2c(C)cc(C)[nH]c2=O)c1C)C1CCOCC1 (racemic) | 7.13 | – |
| 9.23 | 2.64 | – | CCN(c1cc(-c2ccc([C@@H]3C[C@H]3NCC3CCOCC3)cc2)cc(C(=O)NCc2c(C)cc(C)[nH]c2=O)c1C)C1CCOCC1 (racemic) | 4.03 | IC50 [6]: 2050 nM; IC50 [7]: 43.7 µM |
| 5.08 | 24.1 | – | CCN(c1cc(-c2ccc([C@@H]3C[C@H]3NC(=O)OC(C)(C)C)cc2)cc(C(=O)NCc2c(C)c(Br)c(C)[nH]c2=O)c1C)C1CCOCC1 (racemic) | > 30 | inhibition [8]: Active; inhibition [19]: inactive; inhibition [20]: inactive; inhibition [9]: Active |
| > 30 | 13.8 | – | CCN(c1cc(-c2ccc([C@@H]3C[C@H]3NCC3CC3)cc2)cc(C(=O)NCc2c(C)cc(C)[nH]c2=O)c1C)C1CCOCC1 (racemic) | 10.4 | – |
| > 30 | 5.39 | – | CCN(c1cc(-c2ccc([C@@H]3C[C@H]3NCc3ccccc3F)cc2)cc(C(=O)NCc2c(C)cc(C)[nH]c2=O)c1C)C1CCOCC1 (racemic) | 27.4 | – |
| 3.87 | 3.47 | > 3 | CCN(c1cc(-c2cccc([C@H]3C[C@@H]3N(C(=O)OC(C)(C)C)C3CCOCC3)c2)cc(C(=O)NCc2c(C)cc(C)[nH]c2=O)c1C)C1CCOCC1 (racemic) | 6.92 | – |
| > 30 | 6.01 | – | CCN(c1cc(-c2ccc([C@@H]3C[C@H]3NCC(=O)N3CCOCC3)cc2)cc(C(=O)NCc2c(C)cc(C)[nH]c2=O)c1C)C1CCOCC1 (racemic) | 19.7 | – |
| 6.41 | 5.45 | – | CCN(c1cc(-c2ccc([C@@H]3C[C@H]3NCc3ccccc3OC)cc2)cc(C(=O)NCc2c(C)cc(C)[nH]c2=O)c1C)C1CCOCC1 (racemic) | 4.87 | – |
| > 30 | 6.49 | > 3 | CCN(c1cc(-c2ccc([C@@H]3C[C@H]3N(CC(=O)N3CCN(C(=O)OC(C)(C)C)CC3)C(=O)OC(C)(C)C)cc2)cc(C(=O)NCc2c(C)cc(C)[nH]c2=O)c1C)C1CCOCC1 (racemic) | 13.1 | – |
| > 30 | 13.8 | > 3 | CCN(c1cc(-c2ccc([C@@H]3C[C@H]3N(Cc3ccccc3)C(=O)OC(C)(C)C)cc2)cc(C(=O)NCc2c(C)cc(C)[nH]c2=O)c1C)C1CCOCC1 (racemic) | > 30 | – |
| > 30 | 21 | – | CCN(c1cc(-c2cccc([C@@H]3C[C@H]3NC3CCOCC3)c2)cc(C(=O)NCc2c(C)cc(C)[nH]c2=O)c1C)C1CCOCC1 (racemic) | 10.1 | – |
| > 30 | 4.09 | – | CCN(c1cc(-c2ccc([C@@H]3C[C@H]3NCC(=O)N3CCNCC3)cc2)cc(C(=O)NCc2c(C)cc(C)[nH]c2=O)c1C)C1CCOCC1 (racemic) | 18.9 | – |

| Structure (SMILES) | GI50 (PC-3 [1]) [µM] | GI50 (LNCaP [2]) [µM] | IC50 [4] [µM] | GI50 (CWR22R [3]) [µM] | further results |
| --- | --- | --- | --- | --- | --- |
| N[C@@H]1C[C@H]1c1ccccc1.N[C@H]1C[C@@H]1c1ccccc1 (racemic) [TRANYLCYPROMINE] | > 30 | > 30 | – | – | – |
| NC1CCC(N[C@@H]2C[C@H]2c2ccccc2)CC1 (stereo partly drawn) | > 30 | > 30 | – | > 30 | Activity (CWR22R [5]): 11.56%; IC50 [6]: 510 nM; IC50 [7]: 24.5 µM |

Reference: ChEMBL document CHEMBL5584353, “Design, Synthesis, and Biological Evaluation of Potent EZH2/LSD1 Dual Inhibitors for Prostate Cancer” (J Med Chem, 2024)
